From article PMC4982551 (MedChemComm, 2016)

System: selected panel of PTPs (mPTPB, SHP2, PTP1B, CD45, LYP, FAP-1)
Experiment: PTP activity assay, selected panel of PTPs
Assay type: biochemical
Conditions: pH 7, 25 °C

SMILES | PTP inhibitory activity (in words)
Oc1cc2ccccc2cc1C(O)(C(F)(F)F)C(F)(F)F [1f] | the most potent one
O=C(COc1ccc2cc(C(O)(C(F)(F)F)C(F)(F)F)c(O)cc2c1)N1c2ccccc2Sc2ccccc21 [7p] | very high activity
O=C(COc1ccc2cc(C(O)(C(F)(F)F)C(F)(F)F)c(O)cc2c1)NC1c2ccccc2-c2ccccc21 [7i] | moderate activities
Cc1ccc(O)c(C(O)(C(F)(F)F)C(F)(F)F)c1 [1b] | moderate activity
O=C(COc1ccc2cc(C(O)(C(F)(F)F)C(F)(F)F)c(O)cc2c1)NCCc1ccc(Cl)cc1Cl [7h] | moderate activities
O=C(COc1ccc2cc(C(O)(C(F)(F)F)C(F)(F)F)c(O)cc2c1)NC12CC3CC(CC(C3)C1)C2 [7d] | moderate activities
OC(c1ccccc1)(C(F)(F)F)C(F)(F)F [1a] | No appreciable activity
